The values that follow come from paper PMC5054527, “Mechanism of high affinity inhibition of the human urate transporter URAT1” (Scientific Reports, 2016).

What all share (assay): URAT1 uric acid transport activity assay
Assay type in all cases: cell-based

In test [1] the target is T1, r-Y365F/M481I rURAT1 double point mutant (Rattus norvegicus, UniProt Q3ZAV1, M481I/Y365F).
T1 construct: hURAT1 and rURAT1 are 553 amino acid proteins with 12 transmembrane segments; expressed in transfected cells; host or cells: HEK-293T
The method, boiled down: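 Readout: 14C-uric acid uptake (100 μM, 10 min) in cells transiently transfected one day earlier with mutant rURAT1. Serially diluted inhibitors were added 5 min before substrate. Triplicate points, four-parameter logistic fit for IC50.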

For test [2], the target named is T2, h-F365Y hURAT1 point mutant (Homo sapiens, UniProt Q96S37, F365Y).
T2 sequence (Q96S37 1-553 F365Y): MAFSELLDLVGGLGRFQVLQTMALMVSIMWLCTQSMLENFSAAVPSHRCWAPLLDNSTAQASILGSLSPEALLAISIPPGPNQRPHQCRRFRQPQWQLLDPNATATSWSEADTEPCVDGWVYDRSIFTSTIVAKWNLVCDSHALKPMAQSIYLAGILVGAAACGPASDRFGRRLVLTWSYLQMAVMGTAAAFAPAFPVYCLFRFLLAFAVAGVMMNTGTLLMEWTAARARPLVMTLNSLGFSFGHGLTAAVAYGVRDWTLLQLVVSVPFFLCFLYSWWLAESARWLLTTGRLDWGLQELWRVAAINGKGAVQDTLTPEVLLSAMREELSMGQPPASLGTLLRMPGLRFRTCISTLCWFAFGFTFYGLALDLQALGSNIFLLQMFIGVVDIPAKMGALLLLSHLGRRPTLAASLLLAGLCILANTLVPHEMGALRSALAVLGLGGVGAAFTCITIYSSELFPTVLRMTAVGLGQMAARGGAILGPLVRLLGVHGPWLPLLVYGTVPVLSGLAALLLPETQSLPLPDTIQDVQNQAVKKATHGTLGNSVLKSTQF
As to conditions: for fold reduced affinity of h-F365Y compared to hURAT1: from IC50 values; for IC50: h-F365Y, 100 μM 14C-uric acid.

The target of test [3] is T3, h-S35N hURAT1 point mutant (Homo sapiens, UniProt Q96S37, S35N).
T3 sequence (Q96S37 1-553 S35N): T2 sequence (Q96S37 1-553 F365Y) with S35N, Y365F
As to conditions: for fold reduced sensitivity/affinity of h-S35N compared to hURAT1: from IC50 values; for IC50: h-S35N, 100 μM 14C-uric acid.

The target in a further test is T4, human URAT1 (hURAT1 WT) (Homo sapiens, UniProt Q96S37).
T4 sequence (Q96S37 1-553): T2 sequence (Q96S37 1-553 F365Y) with Y365F
As to conditions: for IC50: hURAT1 WT, 100 μM 14C-uric acid; for fold higher affinity (potency) of hURAT1 compared to rURAT1: ratio of IC50 values, rURAT1 vs hURAT1.

Where a chain is given by its changes, count along the chain named. Where two headings read alike, the source gives them in different places.

T1 sequence (Q3ZAV1 whole entry Y365F/M481I): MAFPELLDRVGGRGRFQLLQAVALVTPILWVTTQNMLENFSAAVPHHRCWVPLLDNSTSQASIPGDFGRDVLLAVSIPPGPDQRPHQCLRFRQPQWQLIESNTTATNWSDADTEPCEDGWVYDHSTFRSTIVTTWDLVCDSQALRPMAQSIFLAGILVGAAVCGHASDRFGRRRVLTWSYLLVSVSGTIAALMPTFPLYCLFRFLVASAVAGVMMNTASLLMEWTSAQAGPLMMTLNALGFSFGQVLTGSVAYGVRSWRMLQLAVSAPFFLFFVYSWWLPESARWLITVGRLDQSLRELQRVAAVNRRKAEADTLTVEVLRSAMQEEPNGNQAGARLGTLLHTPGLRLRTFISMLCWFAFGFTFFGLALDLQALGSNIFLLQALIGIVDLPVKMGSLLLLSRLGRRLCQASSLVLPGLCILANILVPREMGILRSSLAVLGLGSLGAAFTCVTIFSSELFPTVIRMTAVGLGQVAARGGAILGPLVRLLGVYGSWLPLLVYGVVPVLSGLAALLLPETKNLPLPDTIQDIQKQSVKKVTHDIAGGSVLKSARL

Take `CCc1oc2ccccc2c1C(=O)c1cc(Br)c(O)c(Br)c1` [benzbromarone]: the IC50 (as a rule, the midpoint of a concentration-inhibition curve) in test [1] worked out at 3.5 ± 0.39 µM.
As to `O=C1C(CC[S+]([O-])c2ccccc2)C(=O)N(c2ccccc2)N1c1ccccc1` (centres unmarked) [sulfinpyrazone], the “fold reduced affinity of h-F365Y compared to hURAT1” value in test [2] was 5 fold. Also, the 50% inhibitory concentration (IC50) worked out at 163 ± 13 µM in test [2] (HEPES pH 7.3); 138 ± 25 µM in test [1] (r-Y365F/M481I, HEPES pH 7.3, 100 μM 14C-uric acid, read-out: IC50 (uric acid transport)); 233 ± 54 µM in test [3] (HEPES pH 7.3); 32 µM against human URAT1 (hURAT1 WT) (HEPES pH 7.3). In addition, the “fold reduced sensitivity/affinity of h-S35N compared to hURAT1” value in test [3] was found to be 7 fold. For the same molecule, the “fold higher affinity (potency) of hURAT1 compared to rURAT1” value at human URAT1 (hURAT1 WT) turned out to be 21 fold.
In the case of `O=c1[nH]c(=O)c2[nH]c(=O)[nH]c2[nH]1` [uric acid], the “fold reduced affinity of h-F365Y compared to hURAT1” value in test [2] was 2.5 fold. In addition, the IC50 is 609 µM in test [2] (MES pH 5.5), 507 µM in test [3] (MES pH 5.5) and 246 µM on human URAT1 (hURAT1 WT) (MES pH 5.5). Further, in test [3], the “fold reduced sensitivity/affinity of h-S35N compared to hURAT1” value is reported as 2.1 fold. Also, the “fold higher affinity (potency) of hURAT1 compared to rURAT1” value on human URAT1 (hURAT1 WT) is reported as “greater than 10 fold”.
